Patent publication US20210260057A1, “COMPOSITIONS AND METHODS TARGETING GLUTAMINE AND ITS METABOLISM FOR DIAGNOSING AND TREATING CANCER AND THERAPY-ASSOCIATED SIDE EFFECTS” (CEDARS-SINAI MEDICAL CENTER, priority 2018, published 2021)
“And” between values parts separate entries of the source, which are not always exact repeats. Equal values may be shown once.

Assays:
primary CAF = assay: Macropinocytosis assay (TMR-dextran uptake); type: cell-based, human; conditions: EIPA 25 μM, 5-Aza DC 5 μM (FIG. 9A)
Experimental: Macropinocytosis assay. These were performed as described previously (Commisso C, Davidson S M, Soydaner-Azeloglu R G, Parker S J, Kamphorst J J, Hackett S, Grabocka E, Nofal M, Drebin J A, Thompson C B, et al. Macropinocytosis of protein is an amino acid supply route in Ras-transformed cells. Nature. 2013; 497(7451):633-7), briefly fibroblasts which were grown on cover slips, serum-starved for 18 hours. TMR-dextran (1 mg/ml; 70 kDa, […]), which is an established marker of macropinocytosis, was added to serum-free medium for 30 min at 37° C. for macropinosomes labeling (Commisso C, Davidson S M, Soydaner-Azeloglu R G, Parker S J, Kamphorst J J, Hackett S, Grabocka E, Nofal M, Drebin J A, Thompson C B, et al. Macropinocytosis of protein is an amino acid supply route in Ras-transformed cells. Nature. 2013; 497(7451):633-7). […] Images were captured using laser confocal scanning microscopy (Leica) and analyzed via LASX software. […] The fluorescence signals in the cells were imaged using FSX100 (Olympus, USA). To determine whether the internalized albumin is intracellularly degraded, we have utilized a self-quenching red fluorescent dye, where lysosomal proteases enable red fluorescence visualization. Cells were incubated in RPMI media containing DQ-BSA (10 μg/ml) for 30 min and washed twice with PBS and monitored by confocal microscopy.

RASAL3 mRNA in CAF = assay: RASAL3 mRNA expression (rtPCR) in CAF; type: cell-based, human; conditions: 5-day treatment; Bic 10^−5 M, Enza 10^−5 M, R1881 10^−9 M, 5-Aza 5 mmol/L
Experimental: (§1) RNA expression level. All real-time PCR assays were carried out using three technical replicates and three independent cDNA syntheses on a 7500 Real-Time PCR System (Applied Biosystems). Data were normalized using an internal control gene, either GAPDH or β-actin. Relative quantification of expression levels (RQ) was calculated using the ^2-ΔΔCt method.

RASAL3 promoter = assay: Methylation specific PCR of RASAL3 exon 2 in CAF; type: cell-based, human; conditions: CAF after treatment
Experimental: (FIG. 13A) Quantitative rtPCR analysis of RASAL3 in NAF and CAF was performed following 5 day treatment with bicalutamide (Bic, 10^−5 M), enzalutamide (Enza, 10^−5 M), R1881 (10^−9 M), or 5-Azacytidine (5-Aza, […]). RASAL3 expression was normalized GAPDH expression. Data represent the mean±SEM. *P<0.05, ***P<0.001, and ****P<0.0001, by two-way ANOVA followed by multiple comparison. Results are the average of at least three independent experiments. (FIG. 13B) MS-PCR of the RASAL3 exon 2 methylation status in CAF after treatment with enzalutamide, R1881, 5-Azacytidine and bicalutamide was performed. The PCR products in the lanes marked “U” indicate unmethylated templates for RASAL3 gene, whereas the products in the lanes marked “M” indicate methylated templates. Data are representative of three independent experiments.

[1] = test system: prostate cancer (serum PSA); assay: PSA response of PCa patients on androgen targeted therapy; type: in vivo, human; set-up: PSA on treatment: unit not given beside the values; conditions: for PSA on treatment: individual PCa patient on the listed Rx
Text: Plasma glutamine level may be prognostic for ADT sensitivity. Considering the striking finding that glutamine can induce ADT resistance, we tested if glutamine concentrations can be associated with ADT sensitivity in prostate cancer patients. We measured blood plasma glutamine concentrations in 28 PCa patients that received ADT (Table 1). Of note, the specific androgen signaling-axis interventions in the patient pool included, androgen receptor antagonists: bicalutamide, enzalutamide, and apalutamide, as well as androgen synthesis inhibitors: leuprolide, goserelin, triptorelin, and abiraterone.

[2] = test system: prostate cancer epithelial cells; assay: ALDH (stem marker) in prostate cancer epithelial cells; type: cell-based
CWR22Rv1 with CAF = assay: 3D co-cultures of CAF-CWR22Rv1, neuroendocrine gene panel rtPCR; type: cell-based, human; conditions: in the context of enzalutamide, 3 days, glutamine free media, well below control levels, F test P<0.0001
Experimental: (§2) 3D organotypic co-culture. A modified version of the 3D organotypic co-culture system was performed in a collagen matrix similar to that previously reported (Stark H J, Baur M, Breitkreutz D, Mirancea N, and Fusenig N E. Organotypic keratinocyte cocultures in defined medium with regular epidermal morphogenesis and differentiation. J Invest Dermatol. 1999; 112(5):681-91). Matrix were prepared by mixing five volumes of rat tail collagen with two volumes of matrigel in one volume of 10×DMEM medium (GE Healthcare Life Sciences), and one volume of FBS (Atlanta Biologicals). CWR22Rv1 and primary mouse prostatic fibroblasts (WT or RAS^V12) were combined in a 1:3 ratio in the matrix. Nylon squares were coated with collagen and placed on metal grids in a 6-well plate. Matrix plugs containing cells, formed in 96 well plates (150 μl), were transferred onto the nylon squares and media was added to the level of the nylon mesh. Following treatments, the cells were dissociated from the matrix with collagenase and dispase for FACS analysis.
as §1

PD1 and CD47 on CWR22Rv1 = assay: FACS of immune checkpoint proteins in prostate cancer/fibroblast co-culture; type: cell-based, human; conditions: CWR22Rv1 co-cultured with wild type or CD105-knockout fibroblasts
[3] = test system: human prostate cancer cells (CWR22Rv1); assay: Gene expression in prostate cancer cells (FIG. 15A-D); type: cell-based; conditions: FIG. 15D
CWR22Rv1 cells [4] = assay: 3D organotypic co-culture, epithelial proliferation by FACS (EpCAM+/Ki67+); type: cell-based, human; conditions: 3D co-cultures of fibroblasts and CWR22Rv1; P<0.05 (GPNA), P<0.001 (BPTES)
Experimental: as §2

[5] = test system: mouse prostatic fibroblasts (Cas9 control); assay: MTT viability assay, control (Cas9 / wild type) fibroblasts; type: cell-based; conditions: 72 hrs incubation with EIPA
Experimental: (§3) (FIG. 10A) The viability of CWR22Rv1 and mouse prostatic fibroblasts (Cas9 control and Rasa13-KO) was measured by MTT assay following 72 hrs incubation with macropinocytotic inhibitor, EIPA. The bar graphs represent the absorbance of the MTT formazan determined at 570 nm from a single experiment representative of a total 3 independent experiments, each performed in quadruplicate. Statistical significance was determined by one-way ANOVA. (FIG. 10B) Quantitation of EpCAM-positive epithelial cells were achieved by FACS of 3D co-cultures of human C4-2B epithelia and wild type (WT) or Ras^V12 mouse fibroblasts. Statistical significance was determined by unpaired t test. (FIG. 10C) Stromal fibroblasts (Cas9 or Rasa13-KO) cultured with CWR22Rv1 epithelia using a standard transwell apparatus. […] Epithelial and stromal cells grown in glutamine free either DMEMF12 or RPMI media. are expressed as mean±SEM of 3 independent experiments. Statistical significance was determined by two-tailed student's t test. **P<0.01, ****P<0.0001.

[6] = test system: Rasa13-KO mouse prostatic fibroblasts; assay: MTT viability assay, Rasa13-KO fibroblasts; type: cell-based; conditions: 72 hrs incubation with EIPA, P<0.001
Experimental: as §3

CWR22Rv1 = assay: MTT viability assay, CWR22Rv1; type: cell-based, human; conditions: CWR22Rv1, 72 hrs incubation with EIPA
Experimental: as §3

[7] = test system: CWR22Rv1 and Ras^V12 mouse fibroblast tissue recombinants; assay: Orthotopic tissue recombinant xenograft, EIPA treatment; type: in vivo; conditions: SCID mice, anterior prostate grafts; EIPA for 1 week from two weeks after grafting, vs vehicle control; P<0.01 (FIG. 2H)
Text: (§4) Tissue recombination mouse models.
To directly determine if Ras signaling confers a tumor supportive role associated with CAF, we used CRISPR/Cas9 to knock out Rasa13 in mouse prostatic fibroblasts. Compared to the expression of Cas9 fibroblasts (control), Ras activity and ERK phosphorylation was elevated in Rasa13-knockout (Rasa13-KO) fibroblasts (FIG. 2D). Rasa13-KO fibroblasts took up TMR dextran, whereas it was undetectable in the control fibroblasts (FIG. 2E). The exogenous expression of active Ras^V12 (Gly^12→Val^12) in wild-type mouse prostatic fibroblasts replicated the downstream ERK activation and macropinocytosis observed in CAF and Rasa13-KO cells (FIG. 2 F,G). Thus, epigenetic RASAL3 silencing of prostatic fibroblasts promoted familiar signaling and macropinocytosis associated with Ras transformation (Commisso et al., 2013). […] To test the role of stromal Ras-mediated macropinocytosis on tumor development, orthotopic PCa xenograft models were used. Tissue recombinants of Ras^V12-expressing fibroblasts and CWR22Rv1 epithelia were grafted into the anterior prostates of SCID mice. Two weeks later, mice were treated with vehicle control or EIPA for 1 week to suppress macropinocytosis (FIG. 2H). […] Thus, glutamine uptake by the tumor was necessary for its expansion.

[8] = test system: CWR22Rv1 and CAF tissue recombinants; assay: Castrate resistant sub-renal capsule xenograft (castration + enzalutamide)
Experimental: Tissue recombination mouse models. Cell recombinants were prepared by mixing 2×10^5 epithelial (CWR22Rv1) cells with 6×10^5 CAFs or stromal cells expressing KRAS^V12 per site in collagen as described before (Banerj ee J, Mishra R, Li X, Jackson R S, 2nd, Sharma A, and Bhowmick N A. A reciprocal role of prostate cancer on stromal DNA damage. Oncogene. 2014; 33(41):4924-31). The mice were either left intact or castrated 1 week after grafting. […] Castrated mice were treated with enzalutamide (5 mg/kg) either alone or in combination with L-glutamic acid Υ-(p-nitroanilide) hydrochloride (GPNA; 10 mg/kg; Sigma-Aldrich) for three weeks. The tumor volumes were measured using digital calipers and calculated using the following formula: length (mm)×width (mm)×width (mm)×0.52. When the mice were sacrificed and tumors were excised and photographed. Formalin-fixed, paraffin-embedded (FFPE) xenograft tumor tissue was sectioned and stained with hematoxylin and eosin (H&E) and staining for chromogranin A, TUNEL, phosphorylated-hi stone H3 and phosphorylated-mTOR.

C4-2B cells = assay: Seahorse XF-24 metabolic flux analysis, C4-2B; type: cell-based, human; conditions: C4-2B in Ras^V12 fibroblast-CM; GPNA 10 μM
Experimental: (§5) Seahorse XF-24 metabolic flux analysis. Oxygen consumption rate (OCR, pmol min-1) was measured with the Searhorse Bioscience XF24 extracellular flux analyzer. Cells were incubated in a CO2-free incubator for 1 h at 37° C. to allow for temperature and pH equilibration prior to loading into the XF24 apparatus. Initial assays were performed to optimize cell number, FCCP concentration and oligomycin concentration (data not shown). We used L-Glutamic acid γ-(p-nitroanilide) hydrochloride (GPNA, 10 μM), a specific glutamine […] inhibitor.

CWR22Rv1 cells [9] = assay: Seahorse XF-24 metabolic flux analysis, CWR22Rv1; type: cell-based, human; conditions: CWR22Rv1 in Ras^V12 fibroblast-CM; GPNA 10 μM
Experimental: as §5

[10] = test system: CWR22Rv1 and CAF tissue recombinants; assay: Sub-renal capsule tissue recombinant xenograft, intact mice; type: in vivo, mouse; conditions: GPNA vs control
Text: as §4

[11] = castrated, enzalutamide treated mice, addition of GPNA

## Nc1ncn([C@H]2C[C@H](O)[C@@H](CO)O2)c(=O)n1 [5-aza-2′-deoxycytidine]
Primary CAF
  TMR-dextran uptake by CAF (macropinocytosis): inhibited
RASAL3 mRNA in CAF
  RASAL3 mRNA expression in CAF: restored
RASAL3 promoter
  methylation of the RASAL3 promoter (methylation specific PCR): hypomethylation

## C[C@]12CC[C@H](O)CC1=CC[C@@H]1[C@@H]2CC[C@]2(C)C(c3cccnc3)=CC[C@@H]12 [A, Abiraterone]
[1]
  PSA on treatment: 26.2 and 6.4

## O=C(Cc1ccccc1)Nc1nnc(CCSCCc2nnc(NC(=O)Cc3ccccc3)s2)s1 [BPTES, bis-2(5-phenylacetamido-1,3,4-thiadiazol-2-yl)ethyl sulfide]
[2]; epithelial culture without stromal fibroblasts (FIG. 17B)
  enzalutamide-upregulated ALDH: can be limited
CWR22Rv1 with CAF
  mRNA expression of the panel of neuroendocrine biomarker genes: significantly reduced
PD1 and CD47 on CWR22Rv1
  CD47 expression (FACS): downregulated
  PD1 expression (FACS): downregulated
[3]
  enzalutamide-induced TET2 expression: downregulates
CWR22Rv1 cells [4]
  epithelial proliferation (Ki-67 staining of EpCAM+ cells, FACS): significantly decreased epithelial proliferation

## CCN(c1nc(N)c(C(=O)N=C(N)N)nc1Cl)C(C)C [EIPA, 5-(N-ethyl-N-isopropyl) amiloride]
[5]
  viability (MTT): no significant effect
Primary CAF
  TMR-dextran uptake by CAF (macropinocytosis): inhibited
[6]
  viability (MTT): reduced the viability
CWR22Rv1
  viability (MTT): no significant effect
[7]
  tumor size: dramatically reduced tumor size

## N[C@@H](CCC(=O)Nc1ccc([N+](=O)[O-])cc1)C(=O)O [GPNA, L-gamma-glutamyl-p-nitroanilide]
[8]; GPNA + ADT vs ADT alone, P<0.001
  cell death (TUNEL): elevated
[8]; GPNA + ADT vs ADT alone, P<0.05
  localization of phosphorylated-mTOR (Ser-2481): reduced
[8]; GPNA + ADT vs androgen signaling blockage alone
  mitotic index (phosphorylated histone H3): did not significantly change
[8]; castrated mice, enzalutamide 5 mg/kg + GPNA 10 mg/kg for three weeks vs ADT alone, P<0.0001
  tumor size: significantly reduced tumor size
[8]; [11]
  chromogranin A expression induced by castration and enzalutamide: reduced chromogranin A expression
  histology (H&E): associated with karyolytic cells
C4-2B cells
  basal respiration, ATP, and maximal respiration (OCR): restored basal respiration, ATP, and maximal respiration to that observed with wild type fibroblast-CM
CWR22Rv1 with CAF
  mRNA expression of the panel of neuroendocrine biomarker genes: significantly reduced
CWR22Rv1 cells [9]
  basal respiration, ATP, and maximal respiration (OCR): restored basal respiration, ATP, and maximal respiration to that observed with wild type fibroblast-CM
[10]; P<0.0001
  mitotic index (phosphorylated-histone H3): reduced
[10]; P<0.001
  tumor volume: reduced tumor volume
CWR22Rv1 cells [4]
  epithelial proliferation (Ki-67 staining of EpCAM+ cells, FACS): significantly decreased epithelial proliferation

## CCNC(=O)[C@@H]1CCCN1C(=O)[C@H](CCCNC(=N)N)NC(=O)[C@H](CC(C)C)NC(=O)[C@@H](CC(C)C)NC(=O)[C@H](Cc1ccc(O)cc1)NC(=O)[C@H](CO)NC(=O)[C@H](Cc1c[nH]c2ccccc12)NC(=O)[C@H](Cc1c[nH]cn1)NC(=O)[C@@H]1CCC(=O)N1 [L, Leuprolide]
[1]
  PSA on treatment: <0.1 and 7.8 and 0.1 and 1.1 and 1.2 and 0.2
[1]; individual PCa patient, responsiveness to ADT based on serum PSA
  Outcome: Responsive (4×) and Non- (2×)

## CC(O)(CS(=O)(=O)c1ccc(F)cc1)C(=O)Nc1ccc(C#N)c(C(F)(F)F)c1 (stereo not shown) [bicalutamide]
[1]
  PSA on treatment: 11.3

## N[C@@H](CCC(=O)O)C(=O)O [glutamate]
[2]; prostate cancer epithelial cells (FIG. 17A, 17B)
  ALDH (stem marker): upregulates ALDH further
